Measurements: ChEMBL document CHEMBL5104141, “Discovery and antiviral profile of new sulfamoylbenzamide derivatives as HBV capsid assembly modulators” (Bioorg Med Chem Lett, 2022)
In brackets after ≈: the same amount, converted by molar mass.

How the values were obtained:
[1] = molecular target: Core antigen (Hepatitis B virus) (UniProt Q03732); assay: Modulation of capsid assembly in HBV infected in human HePAD38 cells assessed as inhibition of viral DNA replication measured after 96 hrs by qPCR analysis; format: cell-based; conditions: filed as modulator
Sequence of Core antigen (Hepatitis B virus) (Q03732 as listed by the source): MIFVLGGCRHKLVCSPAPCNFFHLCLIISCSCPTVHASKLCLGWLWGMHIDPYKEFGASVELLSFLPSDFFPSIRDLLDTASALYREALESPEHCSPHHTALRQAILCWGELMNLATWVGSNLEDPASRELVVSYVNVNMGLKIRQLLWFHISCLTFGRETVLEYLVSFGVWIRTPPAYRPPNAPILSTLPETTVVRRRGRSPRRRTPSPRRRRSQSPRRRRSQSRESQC

[2] = Ratio of drug concentration in liver to blood in C57BL/6 mouse at 5 mg/kg, po measured after 4 hrs; format: ADME, organism-based
[3] = molecular target: Core antigen (Hepatitis B virus) (UniProt Q03732); assay: Modulation of capsid assembly in HBV infected in human HePAD38 cells assessed as fold shift in inhibition of viral DNA replication in presence of 40% normal human serum measured after 96 hrs by qPCR analysis; format: cell-based; conditions: filed as modulator
[4] = Volume of distribution in C57BL/6 mouse at 2 mg/kg, iv; format: ADME, organism-based; conditions: in vivo
[5] = Cytotoxicity against human HePAD38 cells up to 10 uM by CellTiter-Blue assay; format: toxicity, cell-based; conditions: hepad38, 10 µM
[6] = Ratio of EC50 for antiviral activity against HBV harboring core protein F110I mutant to EC50 for antiviral activity against HBV harboring wild type core protein; format: functional, Hepatitis B virus
[7] = Metabolic stability of the compound in mouse hepatocytes assessed as parent compound remaining measured after 4 hrs; format: ADME, cell-based, Hepatocyte; conditions: read-out: Stability
[8] = Mutagenicity in Escherichia coli upto 1250 ug/plate in presence of S9 fraction by Ames test; format: toxicity, subcellular; conditions: dose < 1250 µg
[9] = Mutagenicity in Escherichia coli upto 1250 ug/plate in absence of S9 fraction by Ames test; format: toxicity; conditions: dose < 1250 µg
[10] = Ratio of EC50 for antiviral activity against HBV harboring core protein T33P mutant to EC50 for antiviral activity against HBV harboring wild type core protein; format: functional, Hepatitis B virus
[11] = Mutagenicity in Salmonella typhimurium upto 1250 ug/plate in presence of S9 fraction by Ames test; format: toxicity, subcellular; conditions: salmonella enterica subsp. enterica serovar typhimurium, dose < 1250 µg
[12] = Oral bioavailability in C57BL/6 mouse at 5 mg/kg; format: ADME, organism-based; conditions: in vivo
[13] = molecular target: Cytochrome P450 2D6 (Homo sapiens, UniProt P10635); assay: Inhibition of CYP2D6 (unknown origin); format: ADME
Sequence of Cytochrome P450 2D6 (P10635 whole entry): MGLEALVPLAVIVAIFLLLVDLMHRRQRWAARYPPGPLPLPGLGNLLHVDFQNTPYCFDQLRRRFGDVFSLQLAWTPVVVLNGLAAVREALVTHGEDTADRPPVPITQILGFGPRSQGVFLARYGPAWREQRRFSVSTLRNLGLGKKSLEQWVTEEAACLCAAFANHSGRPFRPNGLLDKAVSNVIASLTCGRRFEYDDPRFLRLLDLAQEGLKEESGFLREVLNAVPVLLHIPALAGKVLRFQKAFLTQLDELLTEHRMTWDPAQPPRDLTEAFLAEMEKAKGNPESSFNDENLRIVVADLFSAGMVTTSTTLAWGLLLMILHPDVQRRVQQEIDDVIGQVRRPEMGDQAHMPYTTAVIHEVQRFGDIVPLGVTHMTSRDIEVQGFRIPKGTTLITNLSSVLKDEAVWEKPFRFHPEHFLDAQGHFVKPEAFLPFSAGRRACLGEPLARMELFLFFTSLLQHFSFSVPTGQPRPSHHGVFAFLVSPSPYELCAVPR

[14] = system: Hepatitis B virus; assay: Antiviral activity against HBV in HBV transgenic mouse assessed as inhibition of viral replication by measuring reduction of serum HBV DNA content at 25 to 75 mg/kg, po BID for 3 days; format: functional, organism-based; conditions: dose 25-75 mg/kg, time 3.0 day, TDE = time-dependent effect
[15] = Ratio of EC50 for antiviral activity against HBV harboring core protein L37Q mutant to EC50 for antiviral activity against HBV harboring wild type core protein; format: functional, Hepatitis B virus
[16] = molecular target: T1, Cytochrome P450 1A2 (Homo sapiens, UniProt P05177); assay: Inhibition of CYP1A2 (unknown origin); format: ADME
T1 sequence (P05177 whole entry): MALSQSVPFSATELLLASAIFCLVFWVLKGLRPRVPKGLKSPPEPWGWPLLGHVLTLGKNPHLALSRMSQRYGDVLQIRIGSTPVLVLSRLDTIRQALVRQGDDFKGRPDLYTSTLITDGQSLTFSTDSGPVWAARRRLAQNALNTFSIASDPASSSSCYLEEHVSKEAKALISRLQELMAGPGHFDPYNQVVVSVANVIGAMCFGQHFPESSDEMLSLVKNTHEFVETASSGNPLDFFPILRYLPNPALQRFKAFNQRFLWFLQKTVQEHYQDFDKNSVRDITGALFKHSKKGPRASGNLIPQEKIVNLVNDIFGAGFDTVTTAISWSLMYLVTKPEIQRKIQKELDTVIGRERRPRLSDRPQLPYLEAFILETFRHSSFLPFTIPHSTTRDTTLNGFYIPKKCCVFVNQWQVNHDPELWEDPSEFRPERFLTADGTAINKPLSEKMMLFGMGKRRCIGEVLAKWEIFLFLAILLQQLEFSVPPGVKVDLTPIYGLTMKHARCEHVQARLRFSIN

[17] = AUC in C57BL/6 mouse at 5 mg/kg, po and 2 mg/kg, iv; format: ADME, organism-based; set-up: dose 5 mg/kg, route po; conditions: in vivo
[18] = Plasma clearance in C57BL/6 mouse at 2 mg/kg, iv; format: ADME, organism-based
[19] = Toxicity in HBV transgenic mouse assessed as liver damage at 25 to 75 mg/kg, po BID for 3 days; format: organism-based; conditions: in vivo, 72 h, dose 25-75 mg/kg, time 3 day
[20] = Ratio of EC50 for antiviral activity against HBV harboring core protein I105T mutant to EC50 for antiviral activity against HBV harboring wild type core protein; format: functional, Hepatitis B virus
[21] = system: Hepatitis B virus; assay: Antiviral activity against HBV in HBV transgenic mouse assessed as inhibition of viral replication by measuring fold reduction of serum HBV DNA content at 75 mg/kg, po BID for 3 days relative to control; format: functional; conditions: time 3 day
[22] = Ratio of EC50 for antiviral activity against HBV harboring core protein F23Y mutant to EC50 for antiviral activity against HBV harboring wild type core protein; format: functional, Hepatitis B virus
[23] = molecular target: Voltage-gated inwardly rectifying potassium channel KCNH2 (Homo sapiens, UniProt Q12809); assay: Inhibition of hERG; format: toxicity
Sequence of Voltage-gated inwardly rectifying potassium channel KCNH2 (Q12809 whole entry): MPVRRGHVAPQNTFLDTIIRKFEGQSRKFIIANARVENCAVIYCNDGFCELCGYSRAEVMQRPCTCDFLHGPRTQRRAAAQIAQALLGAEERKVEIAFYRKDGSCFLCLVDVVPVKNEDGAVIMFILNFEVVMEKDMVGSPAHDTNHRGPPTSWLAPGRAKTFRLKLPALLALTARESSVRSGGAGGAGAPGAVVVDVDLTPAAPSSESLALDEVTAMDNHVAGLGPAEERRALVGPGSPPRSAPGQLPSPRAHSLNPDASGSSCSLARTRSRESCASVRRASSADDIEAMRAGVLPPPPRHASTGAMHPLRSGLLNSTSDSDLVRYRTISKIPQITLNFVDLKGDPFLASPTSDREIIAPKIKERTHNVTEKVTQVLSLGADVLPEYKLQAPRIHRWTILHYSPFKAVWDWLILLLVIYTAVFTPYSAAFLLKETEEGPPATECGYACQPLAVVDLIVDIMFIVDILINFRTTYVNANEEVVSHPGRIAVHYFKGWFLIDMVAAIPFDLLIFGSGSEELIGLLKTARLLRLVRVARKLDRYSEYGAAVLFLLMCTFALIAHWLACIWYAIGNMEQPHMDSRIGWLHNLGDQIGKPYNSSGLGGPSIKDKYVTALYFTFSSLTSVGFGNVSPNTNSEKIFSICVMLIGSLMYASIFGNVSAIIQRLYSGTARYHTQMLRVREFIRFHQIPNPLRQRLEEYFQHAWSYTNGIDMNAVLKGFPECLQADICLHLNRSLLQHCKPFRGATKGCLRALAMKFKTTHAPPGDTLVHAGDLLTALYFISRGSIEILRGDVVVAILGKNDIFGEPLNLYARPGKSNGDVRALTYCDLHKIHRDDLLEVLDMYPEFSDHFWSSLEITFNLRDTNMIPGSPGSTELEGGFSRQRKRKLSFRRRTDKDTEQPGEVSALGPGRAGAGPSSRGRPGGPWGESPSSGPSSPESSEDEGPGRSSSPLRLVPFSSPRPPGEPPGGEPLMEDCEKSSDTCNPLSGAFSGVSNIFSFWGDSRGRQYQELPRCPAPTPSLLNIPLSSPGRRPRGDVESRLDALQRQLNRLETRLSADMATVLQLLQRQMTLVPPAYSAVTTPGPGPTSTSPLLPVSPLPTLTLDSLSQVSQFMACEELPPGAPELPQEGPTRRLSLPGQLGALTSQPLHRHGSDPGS

[24] = Ratio of EC50 for antiviral activity against HBV harboring core protein Y118F mutant to EC50 for antiviral activity against HBV harboring wild type core protein; format: functional, Hepatitis B virus
[25] = Ratio of EC50 for antiviral activity against HBV harboring core protein T33N mutant to EC50 for antiviral activity against HBV harboring wild type core protein; format: functional, Hepatitis B virus
[26] = Kinetic solubility of the compound at pH 7.4; format: physicochemical; conditions: buffer, read-out: Kinetic_solubility
[27] = system: Hepatitis B virus; assay: Antiviral activity against HBV in HBV transgenic mouse assessed as inhibition of viral replication by measuring reduction of serum HBV DNA content administered orally BID for 3 days; format: functional, organism-based; conditions: dose 25-75 mg/kg, route po, time 3.0 day, DDE = dose-dependent effect
[28] = system: Hepatitis B virus; assay: Antiviral activity against HBV in HBV transgenic mouse assessed as inhibition of viral replication by measuring fold reduction of serum HBV DNA content at 25 mg/kg, po BID for 3 days relative to control; format: functional; conditions: time 3 day
[29] = Ratio of EC50 for antiviral activity against HBV harboring core protein T128I mutant to EC50 for antiviral activity against HBV harboring wild type core protein; format: functional, Hepatitis B virus
[30] = system: HepG2 2.2.15; assay: Cytotoxicity against human HepG2.2.15 cells up to 10 uM by CellTiter-Blue assay; format: toxicity, cell-based; conditions: hepg2 2.2.15, 10 µM
[31] = system: Hepatitis B virus; assay: Antiviral activity against HBV in HBV transgenic mouse assessed as inhibition of viral replication by measuring log reduction of serum HBV DNA content at 75 mg/kg, po BID for 3 days; format: functional; conditions: time 3 day
[32] = system: Hepatitis B virus; assay: Antiviral activity against HBV in HBV transgenic mouse assessed as inhibition of viral replication by measuring log reduction of serum HBV DNA content at 25 mg/kg, po BID for 3 days; format: functional; conditions: time 3 day
[33] = Half life in C57BL/6 mouse at 2 mg/kg, iv; format: ADME, organism-based; conditions: in vivo
[34] = Cmax in C57BL/6 mouse at 5 mg/kg, po; format: ADME, organism-based; set-up: dose 5 mg/kg, route po; conditions: in vivo
[35] = molecular target: Cytochrome P450 3A4 (Homo sapiens, UniProt P08684); assay: Inhibition of CYP3A4 (unknown origin); format: ADME
Sequence of Cytochrome P450 3A4 (P08684 whole entry): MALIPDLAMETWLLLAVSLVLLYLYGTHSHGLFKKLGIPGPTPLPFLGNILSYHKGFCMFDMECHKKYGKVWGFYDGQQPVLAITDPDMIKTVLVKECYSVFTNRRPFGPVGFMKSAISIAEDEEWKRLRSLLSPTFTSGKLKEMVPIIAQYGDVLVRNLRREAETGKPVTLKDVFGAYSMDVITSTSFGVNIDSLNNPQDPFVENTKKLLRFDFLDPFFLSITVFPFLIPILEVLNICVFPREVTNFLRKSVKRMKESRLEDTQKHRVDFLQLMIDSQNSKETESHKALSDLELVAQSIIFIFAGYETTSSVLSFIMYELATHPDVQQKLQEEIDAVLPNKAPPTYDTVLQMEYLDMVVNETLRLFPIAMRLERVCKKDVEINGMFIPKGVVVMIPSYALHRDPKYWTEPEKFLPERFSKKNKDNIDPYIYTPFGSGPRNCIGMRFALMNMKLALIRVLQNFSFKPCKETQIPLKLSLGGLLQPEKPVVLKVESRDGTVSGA

[36] = Ratio of EC50 for antiviral activity against HBV harboring core protein V124G mutant to EC50 for antiviral activity against HBV harboring wild type core protein; format: functional, Hepatitis B virus
[37] = Mutagenicity in Salmonella typhimurium upto 1250 ug/plate in absence of S9 fraction by Ames test; format: toxicity; conditions: salmonella enterica subsp. enterica serovar typhimurium, dose < 1250 µg
[38] = Metabolic stability of the compound in human hepatocytes assessed as parent compound remaining measured after 4 hrs; format: ADME, cell-based, Hepatocyte; conditions: read-out: Stability

Cc1cc(N)c(S(N)(=O)=O)cc1C(=O)Nc1ccc(F)c(C(F)(F)F)c1
EC90 [1]: 2.63 µM

Cc1cc(NC(=O)c2ccc(N)c(S(N)(=O)=O)c2)ccc1F
EC90 [1]: 0.7 µM

Nc1ccc(C(=O)Nc2ccc(F)c(C(F)(F)F)c2)cc1S(N)(=O)=O
EC90 [1]: 3.65 µM

Nc1ccc(C(=O)Nc2ccc(F)c(C(F)F)c2)cc1S(N)(=O)=O
EC90 [1]: 0.48 µM

Cc1cc(N)c(S(N)(=O)=O)cc1C(=O)Nc1ccc(F)c(C#N)c1
EC90 [1]: 1.21 µM

Cc1cc(N)c(S(N)(=O)=O)cc1C(=O)Nc1ccc(F)c(C(F)F)c1
EC90 [1]: 0.66 µM

Cc1cc(NC(=O)c2cc(S(N)(=O)=O)c(N)cc2C)ccc1F
EC90 [1]: 0.39 µM

Nc1ccc(C(=O)Nc2cc(F)c(F)c(F)c2)cc1S(N)(=O)=O
EC90 [1]: 0.49 µM

CNc1ccc(C(=O)Nc2cc(F)c(F)c(F)c2)cc1S(N)(=O)=O
EC90 [1]: 20.9 µM

Nc1ccc(C(=O)Nc2ccc(F)c(Cl)c2)cc1S(N)(=O)=O
EC90 [1]: 0.36 µM

Cc1cc(C(=O)Nc2cc(F)c(F)c(F)c2)cc(S(N)(=O)=O)c1N
EC90 [1]: 1.54 µM

Cc1cc(N)c(S(N)(=O)=O)cc1C(=O)Nc1ccc(F)c(Cl)c1
EC90 [1]: 0.39 µM

O=C(Nc1cc(F)c(F)c(F)c1)c1ccc(F)c(S(=O)(=O)N2CCC(O)CC2)c1
EC90 [1]: 1.13 µM

Nc1cc(Cl)c(C(=O)Nc2cc(F)c(F)c(F)c2)cc1S(N)(=O)=O
EC90 [1]: 1.24 µM

Nc1cc(F)c(C(=O)Nc2cc(F)c(F)c(F)c2)cc1S(N)(=O)=O
EC90 [1]: 1.09 µM

Cc1cc(N)c(S(N)(=O)=O)cc1C(=O)Nc1cc(F)c(F)c(F)c1
Kp at 4 h [2]: 10 | fold change (FC) [3]: 16.9 | Vd [4]: 2.3 L/kg | Activity [5]: Non-Toxic | Ratio EC50 [6]: 3.1 | remaining at 4 h [7]: 100% | Activity [8]: Non-Toxic | Activity [9]: Non-Toxic | Ratio EC50 [10]: 3.1 | Activity [11]: Non-Toxic | bioavailability [12]: 114% | IC50 [13]: > 15 µM | Activity [14]: Tde | Ratio EC50 [15]: 3.1 | IC50 [16]: 12.4 µM | AUC [17]: 33 µM·h | EC90 [1]: 0.26 µM | clearance [18]: 0.48 L/h/kg | Activity [19]: Non-Toxic | Ratio EC50 [20]: 3.1 | fold change (FC) [21]: 48.3 | Ratio EC50 [22]: 3.1 | IC50 [23]: > 30 µM | Ratio EC50 [24]: 3.1 | Ratio EC50 [25]: 3.1 | solubility kinetic [26]: 29.2 µM (≈ 10.5 µg/mL) | Activity [27]: Dde | fold change (FC) [28]: 15.2 | Ratio EC50 [29]: 3.1 | Activity [30]: Non-Toxic | log(activity) [31]: 1.68 | log(activity) [32]: 1.18 | half-life [33]: 3.2 h | Cmax [34]: 3.6 µM | IC50 [35]: > 30 µM | Ratio EC50 [36]: 3.1 | Activity [37]: Non-Toxic | remaining at 4 h [38]: 90%

Nc1cc(Br)c(C(=O)Nc2cc(F)c(F)c(F)c2)cc1S(N)(=O)=O
EC90 [1]: 2.78 µM

NS(=O)(=O)c1cc(C(=O)Nc2cc(F)c(F)c(F)c2)ccc1F
EC90 [1]: 8.13 µM

N#Cc1cc(NC(=O)c2ccc(N)c(S(N)(=O)=O)c2)ccc1F
EC90 [1]: 2.53 µM
